Experimental data reported in patent US6686458B2, “Synthetic molecules that specifically react with target sequences” (The Regents of the University of California, priority 1997, dated 2004).

Legend:
[1] = Fluorescence of the free biarsenical molecule bonded to EDT; assay type: physicochemical; details: before reaction with target sequence
[2] = test system: target sequence (SEQ ID NO. 1); test: Stability of biarsenical molecule (III)/target sequence complex to 2,3 dimercapto-1-propanol (BAL); assay type: physicochemical; details: room temperature, 15 minutes; for effect of BAL on complex: 100 nM complex
Method: (§1) This complex has a fluorescence quantum yield of 0.44 with excitation maximum at 508 nm and emission maximum at 528 nm (FIG. 4). The complex was of sufficient stability to remain intact in the presence of up to 100 equivalents of 2,3 dimercapto-1-propanol (BAL). Incubations with BAL were done at room temperature for 15 minutes.

[3] = molecular target: T1, cyan GFP-target sequence (SEQ ID NO. 4) fusion in HeLa cells (Aequorea victoria, UniProt P42212, F64L/M153T/N146I/N212K/S65T/V163A/Y66W); test: Measurement of FRET in HeLa cells expressing cyan GFP-target sequence fusion; assay type: cell-based
T1 construct: expressed in transfected cells; host or cells: HeLa cells, pcDNA3 vector
Source text: Expression of Cyan GFP-target sequence fusion in HeLa cells. Using standard molecular biology techniques, the target sequence (SEQ ID NO. 4) (with the tryptophan in SEQ ID NO. 1 replaced by an alanine) was attached to cyan fluorescent protein (CFP). CFP is the Green Fluorescent Protein (GFP) of Aequorea victoria with the following additional mutations: F64L, S65T, Y66W, N146I, M153T, V163A, N212K. Miyawaki A., et al. Nature 388:882-7 (1997). Fusion of the target sequence to the C-terminus of cyan GFP was accomplished using a PCR primer. The PCR primer had the following oligonucleotide sequence 5′-CGGCAATTCTTAGGCCCTGGCGCAGCACTCCCTGCAGCAGGCCTCCCTGGCGGCGGCCTCGGCCTTGTACAGCTCGTCCATGCCC-3′ (SEQ ID NO. 2) encoding for the expression of the target sequence. It was inserted into the pcDNA3 vector (Invitrogen, Carlsbad, Calif.) using HindIII and EcoRl restriction sites. After amplification in DH5 bacteria, it was transfected (at 37° C.) into HeLa cells using the Lipofectin system from GibcoBRL.
Measurement of FRET in HeLa cells. Three days after transfection, a concentration of 1.0 μM biarsenical molecule(III) and 10.0 μM ethanedithiol was applied to the transfected cells. Fluorescence changes were observed using a 440DF20 filter (Omega Optical, Brattleboro, Vt.) and a 4% transmittance neutral density filter for excitation and 480DF30 and 635DF50 filters for emission.
HeLa cells expressing the fusion protein were contacted with biarsenical molecule (III) on a fluorescence microscope stage. […] Upon addition of 1.0 μM biarsenical molecule (III) mixed with 10 μM EDT to inhibit background staining, the intensity of fluorescence at 480 nm decreased as energy was transferred from the CFP to the biarsenical molecule (III) which had reacted with the target sequence. There was a corresponding increase in fluorescence in the 635 nm channel due to biarsenical molecule (III)/target sequence emission. Upon removal of the biarsenical molecule (III) solution, there was little change.

[4] = molecular target: T2, calmodulin+cys4 (Xenopus laevis, UniProt P0DP33, A11C/A2H/E12C/E7C/E8C); test: Labeling of calmodulin+cys4 in transfected HeLa cells (fluorescence microscopy); assay type: cell-based
T2 construct: expressed in transfected cells; host or cells: HeLa cells, pcDNA3 vector
Source text: Four cysteines were introduced into the N-terminal α-helix of xenopus calmodulin as shown below:
The mutated calmodulin is referred to as calmodulin+cys4. The substitutions were generated by using as a PCR primer of the following oligonucleotide sequence 5′-CGCGGATCCGCCACCATGCATGACCAACTGACATGCTGCCAGATTTGCTGCTTCAAAGAAGCCTTCTCATTATTC-3′ (SEQ ID NO. 3) encoding for the expression of these substitutions. The nucleic acid sequence encoding the cysteine-substituted calmodulin was inserted into pcDNA3 vector (Invitrogen, Carlsbad, Calif.) using the BamHI and EcoRI restriction sites. After amplification in DH5 bacteria, the vector was transfected (at 37° C.) into HeLa cells using the Lipofectin system from GibcoBRL.
Three days after transfection, the cells were treated with 1 μM biarsenical molecule (III) and 10.0 μM EDT for one hour. […] These lightly stained cells may have expressed the calmodulin+cys4 polypeptide, but at lower levels than the bright cells. […] Removal of the 1.4 neutral density filter was required to see details of the staining of the untransfected cells which appeared to be mitochondrial.

[5] = test system: target sequence (SEQ ID NO. 1); test: Fluorescence (quantum yield, excitation and emission maxima) of target sequence/biarsenical molecule complex; assay type: physicochemical
Method: Formation of target sequence/biarsenical molecule (III) complex. Biarsenical molecule (III) (3 μl of 1 mM solution in DMSO) was added to 100 μl of 25 μM target sequence (SEQ. ID NO. 1) in 25 mM phosphate, pH 7.4, 100 mM KCl, 1 mM mercaptoethanesulfonate. After 1.5 hours, the reaction mixture (at room temperature) was injected onto a Dionex IonPac NS1 reverse phase HPLC column, gradient 20% to 46% acetonitrile (0.1% TFA) from 3 to 17 minutes. The complex eluted at 14.7 minutes (Free target sequence elutes at 12.6 minutes.) Mass spectrum analysis indicated a molecular weight of 2414.99 Da and the calculated molecular weight for the 1:1 complex was 2415.33 Da.
Quantum yield of target sequence/biarsenical molecule(III) complex. Solutions of fluorescein in 0.1 N NaOH and of target sequence/biarsenical molecule(III) complex in 25 mM phosphate, pH 7.4 and 100 mM KCl were adjusted to equal absorbances (0.0388) at 499 nm. The ratio of the integrated emission (excitation at 499 nm) of target sequence/biarsenical molecule(III) complex relative to fluorescein was multiplied by 0.9, the quantum yield of fluorescein, giving a quantum yield 0.44 for the target sequence/biarsenical molecule (III) complex.
as §1
Formation of a complex with target sequence and the dichloro-derivative of the biarsenical molecule (III). Dichloro-derivative of the biarsenical molecule (III) (5 μl of 675 μm solution in DMSO was added to 100 μl of 25 μM target sequence (SEQ ID NO. 1) in 25 mM phosphate, pH 7.4, 100 mM KCl 1 mM mercaptoethanesulfonate. After 1.5 hours, the reaction mixture was injected onto a Dionex IonPac SN1 reverse phase HPLC column, gradient 20% to 46% acetonitrile (0.1% TFA) from 3 to 17 minutes. The complex eluted in two overlapping peaks of the same molecular weight at 16.1 and 16.4 minutes. (Free peptide elutes at 12.6 minutes.) Mass spectrum analysis indicated a molecular weight of 2484.80 Da compared to the calculated molecular weight of the 1:1 complex was 2484.22 Da.

[6] = 1.0 μM biarsenical molecule (III) with 10 μM EDT, excitation 440 nm, transfected HeLa cells

Row | SMILES | fluorescence of free molecule [1] | fluorescence of free molecule ([1]; listed as biarsenical molecule of formula (III)) | effect of BAL on complex ([2]; 1 μM BAL) | effect of BAL on complex ([2]; 10 μM BAL) | effect of BAL on complex ([2]; 100 μM BAL) | BAL at which complex remains intact [2] | fluorescence in the 635 nm channel (complex emission) [3, 6] | intensity of fluorescence at 480 nm (CFP emission) [3, 6] | removal of biarsenical molecule from target sequence in cells (reversibility) ([3]; cells treated with 1 mM EDT) | fluorescence of untransfected cells relative to cells expressing the CFP-target sequence fusion ([3]; excitation 480 nm, signal at 535 nm, after subtraction of CFP signal) | fluorescence of transfected cells ([4]; 1 μM biarsenical molecule (III) and 10.0 μM EDT for one hour, HeLa cells transfected with calmodulin+cys4, 480 nm excitation, 535 nm emission) | fluorescence of untransfected cells ([4]; same concentrations of biarsenical molecule (III) and EDT, untransfected HeLa cells) | emission maximum ([5]; complex with target sequence) [nm] | excitation maximum ([5]; complex with target sequence) [nm] | red shift of fluorescent signal relative to fluorescein ([5]; complex with target sequence) | quantum yield ([5]; complex with target sequence, 25 mM phosphate, pH 7.4, 100 mM KCl, excitation at 499 nm, relative to fluorescein) | red shift ([5]; dichloro-derivative compared with biarsenical molecule (III)) [nm]
1 | O=C1OC2(c3ccccc31)c1ccc(O)c([As]3SCCS3)c1Oc1c2ccc(O)c1[As]1SCCS1 [biarsenical molecule (III), 4′,5′-bis(2-arsa-1,3-dithiolan-2-yl)fluorescein] | nonfluorescent | essentially completely nonfluorescent | barely affected | barely affected | significant reduction in fluorescence | up to 100 equivalents | increase | decreased | fast but not complete | about 10% | bright fluorescence | only very light fluorescence | 528 | 508 | about 20 nm | 0.44 | 
2 | O=C1OC2(c3ccccc31)c1cc(Cl)c(O)c([As]3SCCS3)c1Oc1c2cc(Cl)c(O)c1[As]1SCCS1 [2′,7′-dichloro-4′,5′-bis(2-arsa-1,3-dithiolan-2-yl)fluorescein] |  |  |  |  |  |  |  |  |  |  |  |  | 538 | 518 |  |  | 10
